Experimental data from ChEMBL document CHEMBL1201862, “PubChem BioAssay data set” (2004).
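Where inhibition never reached the appropriate level, the endpoint shown equals the highest concentration tested. Otherwise, values were interpolated linearly from a five-concentration, 48-hour dose response in 96-well plates. The concentration for 50% growth inhibition is given as GI50.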 Activity calls are given as the source filed them. Rule as the data show it: active = GI50 up to about 1.1 µM and inactive = higher.

Experiments:
Assay in all cases: NCI-60 cell line screen, 48 h
DLD-1 = test system: DLD-1
A498 = test system: A498
DMS-273 = test system: DMS-273
RPMI-8226 = test system: RPMI-8226
HCT-15 = test system: HCT-15
DMS-114 = test system: DMS-114
KM-20L2 = test system: KM-20L2
RXF 393 = test system: RXF 393
HCC 2998 = test system: HCC 2998
M19-MEL = test system: M19-MEL
CCRF-CEM = test system: CCRF-CEM
UACC-62 = test system: UACC-62
NCI/ADR-RES = test system: NCI/ADR-RES
OVCAR-3 = test system: OVCAR-3
ACHN = test system: ACHN
TK-10 = test system: TK-10
M14 = test system: M14

Structure (SMILES): CC(C)=CCC/C(C)=C/CCC1(C)C=Cc2c(c3ccccc3oc2=O)O1 (stereo not given)
- GI50 (DLD-1): 14.7 µM (inactive)
- GI50 (A498): 13.4 µM (inactive)
- GI50 (DMS-273): 16.9 µM (inactive)
- GI50 (RPMI-8226): 18.2 µM (inactive)
- GI50 (HCT-15): 16 µM
- GI50 (DMS-114): 15.8 µM (inactive)
- GI50 (KM-20L2): 19.4 µM (inactive)
- GI50 (RXF 393): 3.71 µM (inactive)
- GI50 (HCC 2998): 17.7 µM (inactive)
- GI50 (M19-MEL): 17.3 µM (inactive)
- GI50 (CCRF-CEM): 38.5 µM (inactive)
- GI50 (UACC-62): 10.2 µM (inactive)
- GI50 (NCI/ADR-RES): 16.7 µM (inactive)
- GI50 (OVCAR-3): 18.1 µM (inactive)

Structure (SMILES): COC1=C2CC(C)CC(OC)C(O)C(C)/C=C(\C)C(OC(N)=O)C(OC)/C=C\C=C(/C)C(=O)NC(=C(/C=N/C(C)(C)C)C1=O)C2=O (stereo not given)
- GI50 (DLD-1): 6.05 µM (inactive)
- GI50 (A498): 3.57 µM (inactive)
- GI50 (DMS-273): 0.986 µM (active)
- GI50 (RPMI-8226): 0.946 µM (active)
- GI50 (HCT-15): 6.28 µM
- GI50 (DMS-114): 0.466 µM (active)
- GI50 (KM-20L2): 2.28 µM (inactive)
- GI50 (RXF 393): 0.351 µM (active)
- GI50 (HCC 2998): 1.68 µM (inactive)
- GI50 (M19-MEL): 4.45 µM (inactive)
- GI50 (CCRF-CEM): 0.857 µM (active)
- GI50 (UACC-62): 5.38 µM (inactive)
- GI50 (NCI/ADR-RES): 5.7 µM (inactive)
- GI50 (OVCAR-3): 0.585 µM (active)

Structure (SMILES): CCOC(=O)/C=C/c1c(C)[nH]c(=O)[nH]c1=O
- GI50 (DLD-1): > 250 µM (inactive)
- GI50 (A498): > 250 µM (inactive)
- GI50 (DMS-273): > 176 µM (inactive)
- GI50 (RPMI-8226): > 250 µM (inactive)
- GI50 (HCT-15): > 250 µM
- GI50 (DMS-114): 120 µM (inactive)
- GI50 (KM-20L2): > 250 µM (inactive)
- GI50 (RXF 393): > 237 µM (inactive)
- GI50 (HCC 2998): > 250 µM (inactive)
- GI50 (M19-MEL): > 250 µM (inactive)
- GI50 (CCRF-CEM): > 250 µM (inactive)
- GI50 (UACC-62): > 250 µM (inactive)
- GI50 (NCI/ADR-RES): > 250 µM (inactive)
- GI50 (OVCAR-3): > 242 µM (inactive)

Structure (SMILES): CC1(C)O[C@@H](C[C@]2(C#N)C[C@H](CCl)OC(C)(C)O2)C[C@@H](C#N)O1
- GI50 (ACHN): > 100 µM (inactive)
- GI50 (DLD-1): > 100 µM (inactive)
- GI50 (A498): > 100 µM (inactive)
- GI50 (DMS-273): > 100 µM (inactive)
- GI50 (TK-10): > 100 µM (inactive)
- GI50 (RPMI-8226): > 100 µM (inactive)
- GI50 (HCT-15): > 100 µM
- GI50 (M14): > 100 µM (inactive)
- GI50 (DMS-114): > 100 µM (inactive)
- GI50 (KM-20L2): > 100 µM (inactive)
- GI50 (RXF 393): > 100 µM (inactive)
- GI50 (HCC 2998): > 100 µM (inactive)
- GI50 (M19-MEL): > 100 µM (inactive)
- GI50 (CCRF-CEM): > 100 µM (inactive)
- GI50 (UACC-62): > 100 µM (inactive)
- GI50 (OVCAR-3): > 100 µM (inactive)

Structure (SMILES): C=C(C)C(=O)O[C@H]1CC2=C[C@@H](C[C@@]3(C)O[C@@H]3[C@H]3OC(=O)C(=C)[C@@H]31)OC2=O [ELEPHANTOPIN]
- GI50 (DLD-1): 0.897 µM (active)
- GI50 (A498): 5.13 µM (inactive)
- GI50 (DMS-273): 2.79 µM (inactive)
- GI50 (HCT-15): 0.927 µM
- GI50 (DMS-114): 4.47 µM (inactive)
- GI50 (KM-20L2): 4.69 µM (inactive)
- GI50 (RXF 393): 0.369 µM (active)
- GI50 (HCC 2998): 5.11 µM (inactive)
- GI50 (M19-MEL): 2.49 µM (inactive)
- GI50 (UACC-62): 3.5 µM (inactive)
- GI50 (NCI/ADR-RES): 1.14 µM (inactive)
- GI50 (OVCAR-3): 1.2 µM (inactive)
